Results from PubChem BioAssay AID328 (DTP/NCI, 2004).
Values joined by “and” are separate entries in the source; they are usually repeats but may differ in a detail not shown here. Equal entries are not always repeated. Toxic doses and inconclusive results are not listed.

Test system: BDF1 mice, P388 leukemia ip, median survival T/C
Assay: NCI In Vivo Anticancer Drug Screen. Data for tumor model P388 Leukemia (intraperitoneal) in B6D2F1 (BDF1) mice
Conditions: endpoint: median survival time, higher = longer survival
In short: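 Vehicle-dosed animals serve as the reference; survival of compound-dosed, tumour-implanted mice is divided by it.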

[1] = dose: 50.0 mg/kg/injection, schedule: Q01DX009 (ip), vehicle: saline with Tween-80
[2] = dose: 100.0 mg/kg/injection, schedule: Q01DX009 (ip), vehicle: saline with Tween-80
[3] = dose: 200.0 mg/kg/injection, schedule: Q01DX009 (ip), vehicle: saline with Tween-80
[4] = dose: 100.0 mg/kg/injection, schedule: Q04DX003 (ip), vehicle: saline with Tween-80
[5] = dose: 200.0 mg/kg/injection, schedule: Q04DX003 (ip), vehicle: saline with Tween-80
[6] = dose: 400.0 mg/kg/injection, schedule: Q04DX003 (ip), vehicle: saline with Tween-80

Q: Which results are given for `CC(C)OC(CCC#N)c1ccc(Cl)cc1` (configuration not stated)?
A: T/C (dose: 100.0 mg/kg/injection, schedule: Q04DX003 (ip), vehicle: other): 95 % of control; T/C (dose: 400.0 mg/kg/injection, schedule: Q04DX003 (ip), vehicle: other): 95 % of control

Q: For `C[C@@H]1CCC[C@@H](NC(=O)N(CCCl)N=O)C1`, which T/C (dose: 9.37 mg/kg/injection, schedule: Q01DX009 (ip), vehicle: Klucel (hydroxypropylcellulose) (HPC)) is on record?
A: The T/C was 151 % of control.

Q: And the T/C (dose: 18.75 mg/kg/injection, schedule: Q01DX009 (ip), vehicle: Klucel (hydroxypropylcellulose) (HPC))?
A: Its T/C is 157 % of control.

Q: And the T/C (dose: 37.5 mg/kg/injection, schedule: Q01DX009 (ip), vehicle: Klucel (hydroxypropylcellulose) (HPC))?
A: Its T/C is 252 % of control.

Q: And the T/C (dose: 75.0 mg/kg/injection, schedule: Q01DX009 (ip), vehicle: Klucel (hydroxypropylcellulose) (HPC))?
A: The T/C was 120 % of control.

Q: What does the source list for `CN(C)c1ccc(/C=C\c2ccnc3c([N+](=O)[O-])cccc23)cc1`?
A: T/C [1]: 115 % of control; T/C [2]: 97 % of control; T/C [3]: 92 % of control

Q: Which results are given for `CCOC(=O)c1cnn(C(N)=O)c1N`?
A: T/C [2]: 115 % of control; T/C [4]: 110 % of control; T/C [3]: 90 % of control; T/C [5]: 115 % of control; T/C (dose: 400.0 mg/kg/injection, schedule: Q01DX009 (ip), vehicle: saline with Tween-80): 109 % of control and 115 % of control; T/C [6]: 115 % of control

Q: How did the T/C (dose: 50.0 mg/kg/injection, schedule: Q01DX009 (ip), vehicle: other) turn out when `Cc1cc(O)c2c(c1)OC1(C)CCC3C(C)(C)CCCC34COC2C14` (configuration not stated) was run?
A: The T/C was 109 % of control.

Q: What about the T/C (dose: 100.0 mg/kg/injection, schedule: Q01DX009 (ip), vehicle: other) of the same compound?
A: Its T/C is 114 % of control.

Q: And the T/C (dose: 200.0 mg/kg/injection, schedule: Q01DX009 (ip), vehicle: other)?
A: Its T/C is 92 % of control and 110 % of control.

Q: And the T/C (dose: 400.0 mg/kg/injection, schedule: Q01DX009 (ip), vehicle: other)?
A: Its T/C is 101 % of control.

Q: How did the T/C [4] turn out when `O=C1c2cc(Cl)ccc2-c2c(NC(=O)C(Cl)Cl)cc(Cl)cc21` was run?
A: The T/C was 104 % of control.

Q: And the T/C [5]?
A: Its T/C is 113 % of control.

Q: What about the T/C [6] of the same compound?
A: Its T/C is 104 % of control.

Q: What does the source list for `Cc1c[nH]c2nccnc12`?
A: T/C (dose: 1.56 mg/kg/injection, schedule: Q01DX009 (ip), vehicle: water): 103 % of control; T/C (dose: 3.12 mg/kg/injection, schedule: Q01DX009 (ip), vehicle: water): 94 % of control and 105 % of control; T/C (dose: 6.25 mg/kg/injection, schedule: Q01DX009 (ip), vehicle: water): 93 % of control and 94 % of control and 101 % of control; T/C (dose: 12.5 mg/kg/injection, schedule: Q01DX009 (ip), vehicle: water): 91 % of control and 106 % of control; T/C (dose: 50.0 mg/kg/injection, schedule: Q01DX009 (ip), vehicle: water): 90 % of control and 99 % of control; T/C (dose: 50.0 mg/kg/injection, schedule: Q04DX003 (ip), vehicle: water): 94 % of control; T/C (dose: 100.0 mg/kg/injection, schedule: Q01DX009 (ip), vehicle: water): 89 % of control and 106 % of control; T/C (dose: 100.0 mg/kg/injection, schedule: Q04DX003 (ip), vehicle: water): 94 % of control; T/C (dose: 200.0 mg/kg/injection, schedule: Q01DX009 (ip), vehicle: water): 108 % of control; T/C (dose: 200.0 mg/kg/injection, schedule: Q04DX003 (ip), vehicle: water): 103 % of control; T/C (dose: 400.0 mg/kg/injection, schedule: Q01DX009 (ip), vehicle: water): 99 % of control; T/C (dose: 400.0 mg/kg/injection, schedule: Q04DX003 (ip), vehicle: water): 92 % of control

Q: Which T/C (dose: 100.0 mg/kg/injection, schedule: Q01DX009 (ip), vehicle: saline) does the source give for `CCCCCCCCC(O)CCC` (configuration not stated) here?
A: The T/C was 100 % of control.

Q: And the T/C (dose: 200.0 mg/kg/injection, schedule: Q01DX009 (ip), vehicle: saline)?
A: The T/C was 109 % of control.

Q: How did the T/C (dose: 25.0 mg/kg/injection, schedule: Q01DX009 (ip), vehicle: saline with Tween-80) turn out when `COc1ccc2c(c1)CCC(C)(C#N)C2=O` (configuration not stated) was run?
A: Its T/C is 100 % of control.

Q: And the T/C [1]?
A: Its T/C is 100 % of control.

Q: And the T/C [2]?
A: The T/C was 104 % of control.

Q: `COc1ccc(CN2CCCN(Cc3ccc(OC)cc3)S2)cc1` was tested. Which T/C [1] did it give?
A: Its T/C is 92 % of control.

Q: And the T/C [2]?
A: Its T/C is 101 % of control.

Q: What about the T/C [3] of the same compound?
A: Its T/C is 110 % of control.
